For four compounds, Kd results are on record in patent publication US20250186541A1, “DLL3 TARGETING PEPTIDES AND CONSTRUCTS THEREOF” (MARIANA ONCOLOGY INC., priority 2023, published 2025).

Numbered stars: 1 amine (or outer) side, 2 acyl side, 3 side chain; on linkers, the order of the positions; unused ones are H or OH. Bridge positions count the residues as written; N and C are the ends. Square brackets hold non-standard residues; d marks the D form. Peptide text beside a SMILES is read from it. * marks the point of attachment. Ala(1-CH2CO2H-4-piperidyl) = N[C@@H](CC1CCN(CC(=O)O)CC1)C(=O)O; Ala(piperidin-4-yl) = O=C([C@H](CC1CCN([*:3])CC1)N[*:1])[*:2]; DOTA = O=C(O)CN1CCN(CC(=O)O)CCN(CC(=O)*)CCN(CC(=O)O)CC1; Phe(4-CH2NH2) = NCc1ccc(C[C@H](N)C(=O)O)cc1; 1Nal = N[C@@H](Cc1cccc2ccccc12)C(=O)O; 2Nal = N[C@@H](Cc1ccc2ccccc2c1)C(=O)O; tBuAla = CC(C)(C)C[C@H](N)C(=O)O; αMeD = C[C@](N)(CC(=O)O)C(=O)O; AllylGly = C=CC[C@H](N)C(=O)O; αMeP = C[C@@]1(C(=O)O)CCCN1

By Kd is commonly meant the free concentration of one partner at which half of the binding sites on the other are occupied at equilibrium, for simple one-to-one binding. Read a high Kd as a looser complex.

The assay has as its target T1, human DLL3 (Homo sapiens, UniProt Q9NYJ7).
T1 construct: biotin (biotinylated)
T1 sequence (Q9NYJ7 27-618): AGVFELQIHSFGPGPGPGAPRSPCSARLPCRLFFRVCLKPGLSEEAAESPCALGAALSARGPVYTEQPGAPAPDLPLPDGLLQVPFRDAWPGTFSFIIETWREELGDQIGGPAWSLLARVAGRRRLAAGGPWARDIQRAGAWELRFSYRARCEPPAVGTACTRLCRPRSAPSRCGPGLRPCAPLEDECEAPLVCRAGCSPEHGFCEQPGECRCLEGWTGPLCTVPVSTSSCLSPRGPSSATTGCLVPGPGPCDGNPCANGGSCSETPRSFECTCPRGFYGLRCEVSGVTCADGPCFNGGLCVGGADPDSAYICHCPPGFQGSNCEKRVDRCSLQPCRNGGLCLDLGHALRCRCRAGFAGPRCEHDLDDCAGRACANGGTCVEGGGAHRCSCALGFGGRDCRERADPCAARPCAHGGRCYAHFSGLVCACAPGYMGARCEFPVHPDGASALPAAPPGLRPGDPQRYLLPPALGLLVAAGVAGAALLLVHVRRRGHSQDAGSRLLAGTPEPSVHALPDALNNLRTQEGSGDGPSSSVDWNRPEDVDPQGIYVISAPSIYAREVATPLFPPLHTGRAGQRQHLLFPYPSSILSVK
The assay is described as follows: Affinity determination by Surface Plasmon Resonance (SPR), Biacore, 1:1 binding model. Conditions: biotinylated human DLL3 on streptavidin chip, 25° C.; NB = nonbinding. The method in brief: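 SPR with biotinylated human DLL3 captured on a streptavidin chip, with a reference surface subtracted. Samples were injected at several concentrations at 100 μL/min in phosphate buffer with 137 mM NaCl, 2.7 mM KCl, 0.05% P20 and 2% DMSO. Kinetic and affinity constants came from a 1:1 binding fit.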
In general terms: SPR reads the build-up and loss of mass on a sensor chip optically.
`CC(=O)N[C@H](C)C(=O)N[C@@H](CO)C(=O)N[C@@H](CC(=O)O)C(=O)N[C@H]1C/C=C/C[C@@H](C(=O)N2CCC[C@@]2(C)C(=O)N[C@@H](Cc2ccccc2)C(=O)N[C@@H](CC(=O)O)C(N)=O)NC(=O)[C@H](CC(N)=O)NC(=O)[C@H](Cc2ccc3ccccc3c2)NC(=O)[C@H](Cc2ccc(CNC(=O)CN3CCN(CC(=O)O)CCN(CC(=O)O)CCN(CC(=O)O)CC3)cc2)NC(=O)[C@H](CC2CCNCC2)NC(=O)[C@H](Cc2cccc3ccccc23)NC1=O` [compound 204, Ac-(D-Ala)-S-D-AllyG(4)-(1Nal)-[3-(4-piperidinyl)-Ala]-[PAF(DOTA)]-(2Nal)-N-AllyG(4)-(aMe-P)-F-D-CONH2] (Ac-[dA]SD[AllylGly][1Nal][Ala(piperidin-4-yl)][Phe(4-CH2NH2)](DOTA)[2Nal]N[AllylGly][αMeP]FD-NH2; staple (E) 4-10) displayed a dissociation constant (Kd) of 1.3 nM.

In turn, `CC(=O)N[C@@H](CC1CCN(CC(=O)O)CC1)C(=O)N[C@@H](CO)C(=O)N[C@@](C)(CC(=O)O)C(=O)N[C@H]1C/C=C\C[C@@H](C(=O)N2CCC[C@@]2(C)C(=O)N[C@@H](Cc2ccccc2)C(=O)N[C@@H](CC(=O)O)C(N)=O)NC(=O)[C@H](CC(N)=O)NC(=O)[C@H](Cc2ccc3ccccc3c2)NC(=O)[C@H](Cc2ccc(CNC(=O)CN3CCN(CC(=O)O)CCN(CC(=O)O)CCN(CC(=O)O)CC3)cc2)NC(=O)[C@H](CC(C)(C)C)NC(=O)[C@H](Cc2cccc3ccccc23)NC1=O` [compound 207, Ac-[3-(piperidinyl-4-CH2CO2H)-Ala]-S-(aMe-Asp)-AllyG(4)-(1Nal)-(t-Bu-Ala)-[PAF(DOTA)]-(2Nal)-N-AllyG(4)-(aMe-P)-F-D-CONH2] (Ac-[Ala(1-CH2CO2H-4-piperidyl)]S[αMeD][AllylGly][1Nal][tBuAla][Phe(4-CH2NH2)](DOTA)[2Nal]N[AllylGly][αMeP]FD-NH2; staple (Z) 4-10) returned a dissociation constant Kd of 31 nM.

As for `CC(=O)N[C@@H](CC1CCN(CC(=O)O)CC1)C(=O)N[C@@H](CO)C(=O)N[C@@](C)(CC(=O)O)C(=O)N[C@H]1C/C=C/C[C@@H](C(=O)N2CCC[C@@]2(C)C(=O)N[C@@H](Cc2ccccc2)C(=O)N[C@@H](CC(=O)O)C(N)=O)NC(=O)[C@H](CC(N)=O)NC(=O)[C@H](Cc2ccc3ccccc3c2)NC(=O)[C@H](Cc2ccc(CNC(=O)CN3CCN(CC(=O)O)CCN(CC(=O)O)CCN(CC(=O)O)CC3)cc2)NC(=O)[C@H](CC(C)(C)C)NC(=O)[C@H](Cc2cccc3ccccc23)NC1=O` [compound 208, Ac-[3-(piperidinyl-4-CH2CO2H)-Ala]-S-(aMe-Asp)-AllyG(4)-(1Nal)-(t-Bu-Ala)-[PAF(DOTA)]-(2Nal)-N-AllyG(4)-(aMe-P)-F-D-CONH2] (Ac-[Ala(1-CH2CO2H-4-piperidyl)]S[αMeD][AllylGly][1Nal][tBuAla][Phe(4-CH2NH2)](DOTA)[2Nal]N[AllylGly][αMeP]FD-NH2; staple (E) 4-10), the dissociation constant (Kd) amounted to 0.386 nM. Against the preceding compound, the Kd is about 80-fold lower.

`CC(=O)N[C@@H](CC1CCNCC1)C(=O)N[C@@H](CO)C(=O)N[C@@H](CC(=O)O)C(=O)N[C@H]1CCCC[C@@H](C(=O)N2CCC[C@@]2(C)C(=O)N[C@@H](Cc2ccccc2)C(=O)N[C@@H](CC(=O)O)C(N)=O)NC(=O)[C@H](CC(N)=O)NC(=O)[C@H](Cc2ccc3ccccc3c2)NC(=O)[C@H](Cc2ccc(CNC(=O)CN3CCN(CC(=O)O)CCN(CC(=O)O)CCN(CC(=O)O)CC3)cc2)NC(=O)[C@H](CC(C)(C)C)NC(=O)[C@H](Cc2cccc3ccccc23)NC1=O` [compound 209, Ac-[3-(4-piperidinyl)-Ala]-S-D-AllyG(4)*-(1Nal)-(t-Bu-Ala)-[PAF(DOTA)]-(2Nal)-N-AllyG(4)*-(aMe-P)-F-D-CONH2] displayed a Kd of 0.591 nM.
